Assays:
[1] = molecular target: JAK2 (recombinant purified GST-tagged catalytic domain) (Homo sapiens (Human), UniProt O60674); test: Jak Biochemical HTRF Assay (JAK2); conditions: [ATP] 8.5 μM
[2] = molecular target: JAK1 (recombinant purified GST-tagged catalytic domain) (Homo sapiens (Human), UniProt P23458); test: Jak Biochemical HTRF Assay (JAK1); conditions: [ATP] 31.8 μM
In short: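 Under a 120 min room-temperature, ATP-initiated reaction, peptide phosphorylation was detected by Eu-pY20/streptavidin-Dylight 650 HTRF after EDTA stop. IC50 values derive from percent inhibition curves.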

Chain of JAK1 (recombinant purified GST-tagged catalytic domain) (P23458 875-1153): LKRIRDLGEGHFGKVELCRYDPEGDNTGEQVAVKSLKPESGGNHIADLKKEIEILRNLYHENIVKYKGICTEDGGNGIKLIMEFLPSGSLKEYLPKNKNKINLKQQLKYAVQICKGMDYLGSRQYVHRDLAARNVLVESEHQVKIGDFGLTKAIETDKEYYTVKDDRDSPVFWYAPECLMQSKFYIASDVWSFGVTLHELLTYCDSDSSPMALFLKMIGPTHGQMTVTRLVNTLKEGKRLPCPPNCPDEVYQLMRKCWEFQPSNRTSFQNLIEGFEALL
Chain of JAK2 (recombinant purified GST-tagged catalytic domain) (O60674 849-1124): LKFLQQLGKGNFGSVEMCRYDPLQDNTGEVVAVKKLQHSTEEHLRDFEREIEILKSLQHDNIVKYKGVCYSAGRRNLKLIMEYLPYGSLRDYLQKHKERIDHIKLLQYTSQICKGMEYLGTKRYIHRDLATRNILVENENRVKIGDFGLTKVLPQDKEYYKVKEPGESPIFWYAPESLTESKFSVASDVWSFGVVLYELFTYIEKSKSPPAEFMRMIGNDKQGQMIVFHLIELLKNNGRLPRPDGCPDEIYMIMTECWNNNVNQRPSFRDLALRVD

Row | SMILES | IC50 [1] | IC50 [2]
1 | Cc1cc(Nc2nn(C3(CC#N)CCN(c4ccc(C#N)cn4)CC3F)c3cc[nH]c(=O)c23)ccc1C(=O)N1CCSCC1 (stereo in doubt) [Example 15-6, 6-((3R,4R)-4-(cyanomethyl)-3-fluoro-4-(3-((3-methyl-4-(thiomorpholine-4-carbonyl)phenyl)amino)-4-oxo-4,5-dihydro-1H-pyrazolo[4,3-c]pyridin-1-yl)piperidin-1-yl)nicotinonitrile] | 0.09 nM | 0.1 nM
2 | Cc1nc2ccc(Nc3nn(C4(CC#N)CCCOC4)c4cc[nH]c(=O)c34)cc2s1 (stereo in doubt) [Example 21-5, [(3S)-3-{3-[(2-methyl-1,3-benzothiazol-6-yl)amino]-4-oxo-4,5-dihydro-1H-pyrazolo[4,3-c]pyridin-1-yl}tetrahydro-2H-pyran-3-yl]acetonitrile] | 1.32 nM | 0.09 nM
3 | CC(C)(C)OC(=O)N1CC(CC#N)(n2nc(Nc3ccccc3)c3c(=O)[nH]ccc32)C1 [Example 1-1, tert-butyl 3-(cyanomethyl)-3-(4-oxo-3-(phenylamino)-4,5-dihydro-1H-pyrazolo[4,3-c]pyridin-1-yl)azetidine-1-carboxylate] | 25 nM | 2.23 nM
4 | CC(C)(C)OC(=O)N1CCC(CC#N)(n2nc(Nc3ccccc3)c3c(=O)[nH]ccc32)CC1 [Example 1-2, tert-butyl 4-(cyanomethyl)-4-(4-oxo-3-(phenylamino)-4,5-dihydro-1H-pyrazolo[4,3-c]pyridin-1-yl)piperidine-1-carboxylate] | 11.9 nM | 0.45 nM
5 | CCNc1nn(C2(CC#N)CCN(C(=O)OC(C)(C)C)CC2)c2cc[nH]c(=O)c12 [Example 2-1, tert-butyl 4-(cyanomethyl)-4-[3-(ethylamino)-4-oxo-4,5-dihydro-1H-pyrazolo[4,3-c]pyridin-1-yl]piperidine-1-carboxylate] | 60.3 nM | 48.2 nM
6 | CC(C)(C)OC(=O)N1CCC(CC#N)(n2nc(NCC3CC3)c3c(=O)[nH]ccc32)CC1 [Example 2-2, tert-butyl 4-(cyanomethyl)-4-{3-[(cyclopropylmethyl)amino]-4-oxo-4,5-dihydro-1H-pyrazolo[4,3-c]pyridin-1-yl}piperidine-1-carboxylate] | 39.8 nM | 49.9 nM
7 | CC(C)(C)OC(=O)N1CCC(CC#N)(n2nc(NC3CCC3)c3c(=O)[nH]ccc32)CC1 [Example 2-3, tert-butyl 4-(cyanomethyl)-4-[3-(cyclobutylamino)-4-oxo-4,5-dihydro-1H-pyrazolo[4,3-c]pyridin-1-yl]piperidine-1-carboxylate] | > 1500 nM | 67.6 nM
8 | CCNc1nn(C2(CC#N)CN(C(=O)OC(C)(C)C)C2)c2cc[nH]c(=O)c12 [Example 2-4, tert-butyl 3-(cyanomethyl)-3-[3-(ethylamino)-4-oxo-4,5-dihydro-1H-pyrazolo [4,3-c]pyridin-1-yl] azetidine-1-carboxylate] | > 1480 nM | 208 nM
9 | CNc1nn(C2(CC#N)CCN(C(=O)OC(C)(C)C)CC2)c2cc[nH]c(=O)c12 [Example 2-5, tert-butyl 4-(cyanomethyl)-4-[3-(methylamino)-4-oxo-4,5-dihydro-1H-pyrazolo [4,3-c]pyridin-1-yl] piperidine-1-carboxylate] | 490 nM | 20.3 nM
10 | CC(C)(C)OC(=O)N1CC(CC#N)(n2nc(NC3CC3)c3c(=O)[nH]ccc32)C1 [Example 3, tert-butyl 3-(cyanomethyl)-3-[3-(cyclopropylamino)-4-oxo-4,5-dihydro-1H-pyrazolo[4,3-c]pyridin-1-yl]azetidine-1-carboxylate] | 2.51 nM | 40.8 nM
11 | CC(C)(C)OC(=O)N1CC(CC#N)(n2nc(Nc3ccnc(C(F)(F)F)c3)c3c(=O)[nH]ccc32)C1 [Example 4-1, tert-butyl 3-(cyanomethyl)-3-(4-oxo-3-((2-(trifluoromethyl)pyridin-4-yl)amino)-4,5-dihydro-1H-pyrazolo[43-c]pyridin-1-yl)azetidine-1-carboxylate] | 218 nM | 32.9 nM
12 | CC(C)(C)OC(=O)N1CC(CC#N)(n2nc(Nc3ccc(F)cc3)c3c(=O)[nH]ccc32)C1 [Example 4-3, tert-butyl 3-(cyanomethyl)-3-(3-((4-fluorophenyl)amino)-4-oxo-4,5-dihydro-1H-pyrazolo[4,3-c]pyridin-1-yl)azetidine-1-carboxylate] | 36 nM | 2.64 nM
13 | CN(C)S(=O)(=O)c1ccc(Nc2nn(C3(CC#N)CCN(C(=O)OC(C)(C)C)CC3)c3cc[nH]c(=O)c23)cc1 [Example 5-1, tert-butyl 4-(cyanomethyl)-4-(3-((4-(N,N-dimethylsulfamoyl)phenyl)amino)-4-oxo-4,5-dihydro-1H-pyrazolo[4,3-c]pyridin-1-yl)piperidine-1-carboxylate] | 0.28 nM | 0.22 nM
14 | CC(C)(C)OC(=O)N1CCC(CC#N)(n2nc(Nc3ccc(S(N)(=O)=O)cc3)c3c(=O)[nH]ccc32)CC1 [Example 5-4, tert-butyl 4-(cyanomethyl)-4-{4-oxo-3-[(4-sulfamoylphenyl)amino]-4,5-dihydro-1H-pyrazolo[4,3-c]pyridin-1-yl}piperidine-1-carboxylate] | 0.23 nM | 0.12 nM
15 | CC(C)(C)OC(=O)N1CCC(CC#N)(n2nc(Nc3ccc4c(c3)CN(CC(F)(F)F)C4=O)c3c(=O)[nH]ccc32)CC1 [Example 5-5, tert-butyl 4-(cyanomethyl)-4-(4-oxo-3-{[1-oxo-2-(2,2,2-trifluoroethyl)-2,3-dihydro-1H-isoindol-5-yl]amino}-4,5-dihydro-1H-pyrazolo[4,3-c]pyridin-1-yl)piperidine-1-carboxylate] | 0.31 nM | 0.28 nM
16 | CC(C)(C)OC(=O)N1CCC(CC#N)(n2nc(Nc3ccc(C(F)(F)F)cc3)c3c(=O)[nH]ccc32)CC1 [Example 5-8, tert-butyl 4-(cyanomethyl)-4-(4-oxo-3-{[4-(trifluoromethyl)phenyl]amino}-4,5-dihydro-1H-pyrazolo [4,3-c]pyridin-1-yl) piperidine-1-carboxylate] | 20 nM | 1.96 nM
17 | CC(C)(C)OC(=O)N1CCC(CC#N)(n2nc(Nc3ccc4c(c3)CCC4=O)c3c(=O)[nH]ccc32)CC1 [Example 5-12, tert-butyl 4-(cyanomethyl)-4-(4-oxo-3-((1-oxo-2,3-dihydro-1H-inden-5-yl)amino)-4,5-dihydro-1H-pyrazolo[4,3-c]pyridin-1-yl)piperidine-1-carboxylate] | 0.61 nM | 0.12 nM
18 | CC(C)(C)OC(=O)N1CC[C@@](CC#N)(n2nc(Nc3ccc(S(C)(=O)=O)cc3)c3c(=O)[nH]ccc32)[C@@H](F)C1 [Example 5-16, tert-butyl (3S,4S)-4-(cyanomethyl)-3-fluoro-4-(3-{[4-(methyl-sulfonyl)phenyl]amino}-4-oxo-4,5-dihydro-1H-pyrazolo[4,3-c]pyridin-1-yl)piperidine-1-carboxylate] | 0.35 nM | 0.12 nM
19 | CC(C)(C)OC(=O)N1CC[C@](CC#N)(n2nc(Nc3ccc(S(C)(=O)=O)cc3)c3c(=O)[nH]ccc32)[C@H](F)C1 [Example 5-17, tert-butyl (3R,4R)-4-(cyanomethyl)-3-fluoro-4-(3-{[4-(methylsulfonyl)phenyl]amino}-4-oxo-4,5-dihydro-1H-pyrazolo [4,3-c]pyridin-1-yl) piperidine-1-carboxylate] | 0.08 nM | 0.09 nM
20 | CN(C)S(=O)(=O)c1ccc(Nc2nn([C@@]3(CC#N)CCN(C(=O)OC(C)(C)C)C[C@H]3F)c3cc[nH]c(=O)c23)cc1 [Example 5-18, tert-butyl (3R,4R)-4-(cyanomethyl)-4-(3-{[4-(dimethylsulfamoyl)phenyl]amino}-4-oxo-4,5-dihydro-1H-pyrazolo [4,3-c]pyridin-1-yl)-3-fluoropiperidine-1-carboxylate] | 0.12 nM | 0.1 nM
21 | CC(C)(C)OC(=O)N1CC[C@](CC#N)(n2nc(Nc3ccccc3)c3c(=O)[nH]ccc32)[C@H](F)C1 [Example 5-19, tert-butyl (3R,4R)-4-(cyanomethyl)-3-fluoro-4-[4-oxo-3-(phenyl-amino)-4,5-dihydro-1H-pyrazolo[4,3-c]pyridin-1-yl]piperidine-1-carboxylate] | 0.08 nM | 0.08 nM
22 | CC(C)(C)OC(=O)N1CC[C@](CC#N)(n2nc(Nc3ccc4c(c3)CN(C(C)(C)C)S4(=O)=O)c3c(=O)[nH]ccc32)[C@H](F)C1 [Example 5-22, tert-butyl (3R,4R)-4-{3-[(2-tert-butyl-1,1-dioxido-2,3-dihydro-1,2-benzisothiazol-5-yl)amino]-4-oxo-4,5-dihydro-1H-pyrazolo [4,3-c]pyridin-1-yl}-4-(cyanomethyl)-3-fluoropiperidine-1-carboxylate] | 0.19 nM | 0.15 nM
23 | CC(C)(C)OC(=O)N1CCC(CC#N)(n2nc(Nc3ccc4c(c3)CN(C(C)(C)C)S4(=O)=O)c3c(=O)[nH]ccc32)CC1 [Example 5-23, tert-butyl 4-{3-[(2-tert-butyl-1,1-dioxido-2,3-dihydro-1,2-benzisothiazol-5-yl)amino]-4-oxo-4,5-dihydro-1H-pyrazolo[4,3-c]pyridin-1-yl}-4-(cyanomethyl)piperidine-1-carboxylate] | 0.34 nM | 0.24 nM
24 | CC(C)(C)OC(=O)N1CC[C@](CC#N)(n2nc(Nc3ccc4c(c3)CN(CC(F)(F)F)S4(=O)=O)c3c(=O)[nH]ccc32)[C@H](F)C1 [Example 5-24, tert-butyl (3R,4R)-4-(cyanomethyl)-4-(3-{[1,1-dioxido-2-(2,2,2-trifluoroethyl)-2,3-dihydro-1,2-benzisothiazol-5-yl]amino}-4-oxo-4,5-dihydro-1H-pyrazolo[4,3-c]pyridin-1-yl)-3-fluoropiperidine-1-carboxylate] | 0.25 nM | 0.2 nM
